# pIC50: −log10 of the molar value.
# Assays:
# HDAC1 = molecular target: T1, HDAC1 (Homo sapiens, UniProt Q13547); assay: HDAC enzyme activity inhibition (in vitro), HDAC1 Fluorimetric Drug Discovery Assay Kit; format: biochemical; conditions: samples at 100, 1000 and 10000 nM; 37° C. 60 minutes; fluorescence Ex 390, Em 460; read-out: HDAC1 IC50
# T1 construct: purchased Enzolifesciences BML-AK511
# In short: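 Each sample reacted with enzyme for 60 min at 37° C before a 30-min developer step at the same temperature. HDAC1 doses spanned 100 to 10000 nM. Fluorescent signal was read at Ex 390/Em 460.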
# HDAC6 human recombinant = molecular target: T2, HDAC6 human recombinant (Homo sapiens, UniProt Q9UBN7); assay: HDAC enzyme activity inhibition (in vitro), HDAC6 assay; format: biochemical; conditions: samples at 0.1, 1, 10, 100 and 1000 nM; 37° C. 60 minutes; fluorescence Ex 390, Em 460; read-out: HDAC6 IC50
# T2 construct: purchased Calbiochem 382180
# T2 sequence (Q9UBN7 1-1215): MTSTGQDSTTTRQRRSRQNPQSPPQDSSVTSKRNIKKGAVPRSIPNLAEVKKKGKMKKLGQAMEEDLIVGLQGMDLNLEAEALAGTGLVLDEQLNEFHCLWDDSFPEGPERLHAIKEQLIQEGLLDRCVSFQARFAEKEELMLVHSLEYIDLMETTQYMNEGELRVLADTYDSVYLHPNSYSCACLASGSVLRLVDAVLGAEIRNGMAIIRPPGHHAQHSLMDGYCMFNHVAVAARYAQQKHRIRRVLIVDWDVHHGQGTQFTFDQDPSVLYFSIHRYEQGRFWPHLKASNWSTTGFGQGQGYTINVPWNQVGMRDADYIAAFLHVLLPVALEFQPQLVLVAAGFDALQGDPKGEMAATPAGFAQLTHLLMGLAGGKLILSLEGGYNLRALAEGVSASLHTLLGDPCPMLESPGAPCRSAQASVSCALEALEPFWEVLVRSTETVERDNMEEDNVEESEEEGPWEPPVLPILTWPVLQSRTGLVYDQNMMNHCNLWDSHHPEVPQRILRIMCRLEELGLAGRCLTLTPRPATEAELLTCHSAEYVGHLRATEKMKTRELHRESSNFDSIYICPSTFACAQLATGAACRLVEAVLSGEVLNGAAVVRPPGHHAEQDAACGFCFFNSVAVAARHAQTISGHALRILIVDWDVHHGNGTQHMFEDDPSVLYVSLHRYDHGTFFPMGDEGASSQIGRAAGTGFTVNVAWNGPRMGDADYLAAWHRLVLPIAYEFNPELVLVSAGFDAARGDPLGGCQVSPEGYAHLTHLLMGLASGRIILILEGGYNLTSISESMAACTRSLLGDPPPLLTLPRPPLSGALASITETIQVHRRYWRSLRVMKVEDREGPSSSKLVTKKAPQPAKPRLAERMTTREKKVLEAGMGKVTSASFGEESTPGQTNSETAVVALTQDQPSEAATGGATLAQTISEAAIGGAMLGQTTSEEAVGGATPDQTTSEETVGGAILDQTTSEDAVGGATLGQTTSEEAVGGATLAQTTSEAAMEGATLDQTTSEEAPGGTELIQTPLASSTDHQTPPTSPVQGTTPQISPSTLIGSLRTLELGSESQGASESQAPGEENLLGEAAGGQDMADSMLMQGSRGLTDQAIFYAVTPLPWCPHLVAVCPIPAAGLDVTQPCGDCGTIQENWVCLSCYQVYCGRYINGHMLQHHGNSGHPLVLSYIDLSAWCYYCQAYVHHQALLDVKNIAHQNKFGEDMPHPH
# In short: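 Fluorescence (Ex 390, Em 460) read after a 37° C, 60 min enzyme reaction and a further 30 min developer step at 37° C. Uses recombinant human HDAC6; HDAC1 arm dosed at 100, 1000, 10000 nM.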
# T1 sequence (Q13547 whole entry): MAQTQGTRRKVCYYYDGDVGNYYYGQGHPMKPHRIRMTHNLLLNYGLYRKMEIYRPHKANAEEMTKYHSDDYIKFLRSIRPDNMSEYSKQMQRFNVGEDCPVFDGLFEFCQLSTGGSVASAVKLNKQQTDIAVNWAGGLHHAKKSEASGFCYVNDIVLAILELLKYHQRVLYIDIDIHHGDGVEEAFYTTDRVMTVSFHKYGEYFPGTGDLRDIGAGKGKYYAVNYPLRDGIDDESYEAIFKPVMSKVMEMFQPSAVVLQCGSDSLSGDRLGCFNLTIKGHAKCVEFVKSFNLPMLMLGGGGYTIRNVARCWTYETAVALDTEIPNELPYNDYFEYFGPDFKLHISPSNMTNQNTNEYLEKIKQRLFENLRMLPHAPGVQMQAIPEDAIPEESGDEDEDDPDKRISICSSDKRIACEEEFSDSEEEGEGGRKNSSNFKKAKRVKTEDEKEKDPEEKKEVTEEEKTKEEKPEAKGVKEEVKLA
pIC50 (HDAC1),pIC50 (HDAC6 human recombinant),SMILES
< 5.00,7.62,"CN1CCC(n2c(=O)n(Cc3ccc(-c4nnc(C(F)F)o4)cc3F)c3cc(F)c(-c4cccnc4)cc32)CC1 [Compound 117, 1-(4-(5-(difluoromethyl)-1,3,4-oxadiazole-2-yl)-2-fluorobenzyl)-6-fluoro-3-(1-methylpiperidine-4-yl)-5-(pyridine-3-yl)-1,3-dihydro-2H-benzo[d]imidazole-2-one]"
< 5.00,7.38,"CN1CCC(n2c(=O)n(Cc3ccc(-c4nnc(C(F)F)o4)cc3F)c3cc(F)c(-c4ccncc4)cc32)CC1 [Compound 118, 1-(4-(5-(difluoromethyl)-1,3,4-oxadiazole-2-yl)-2-fluorobenzyl)-6-fluoro-3-(1-methylpiperidine-4-yl)-5-(pyridine-4-yl)-1,3-dihydro-2H-benzo[d]imidazole-2-one]"
< 5.00,7.10,"CN1CCC(n2c(=O)n(Cc3ccc(-c4nnc(C(F)F)o4)cc3F)c3cc(Br)ccc32)CC1 [Compound 119, 5-bromo-3-(4-(5-(difluoromethyl)-1,3,4-oxadiazole-2-yl)-2-fluorobenzyl)-1-(1-methylpiperidine-4-yl)-1,3-dihydro-2H-benzo[d]imidazole-2-one]"
< 5.00,5.88,"CN1CCC(n2c(=O)n(Cc3ccc(-c4nnc(C(F)F)o4)cc3F)c3cc(-c4cccc(F)c4)ccc32)CC1 [Compound 120, 3-(4-(5-(difluoromethyl)-1,3,4-oxadiazole-2-yl)-2-fluorobenzyl)-5-(3-fluorophenyl)-1-(1-methylpiperidine-4-yl)-1,3-dihydro-2H-benzo[d]imidazole-2-one]"
< 5.00,5.50,"CN1CCC(n2c(=O)n(Cc3ccc(-c4nnc(C(F)F)o4)cc3F)c3cc(-c4cc(F)ccc4F)ccc32)CC1 [Compound 121, 3-(4-(5-(difluoromethyl)-1,3,4-oxadiazole-2-yl)-2-fluorobenzyl)-5-(2,5-difluorophenyl)-1-(1-methylpiperidine-4-yl)-1,3-dihydro-2H-benzo[d]imidazole-2-one]"
< 5.00,< 5.30,"CN1CCC(n2c(=O)n(Cc3ccc(-c4nnc(C(F)F)o4)cc3F)c3cc(-c4ccc(C(F)(F)F)cc4)ccc32)CC1 [Compound 122, 3-(4-(5-(difluoromethyl)-1,3,4-oxadiazole-2-yl)-2-fluorobenzyl)-1-(1-methylpiperidine-4-yl)-5-(4-(trifluoromethyl)phenyl)-1,3-dihydro-2H-benzo[d]imidazole-2-one]"
< 5.00,6.02,"Cc1ccc(-c2ccc3c(c2)n(Cc2ccc(-c4nnc(C(F)F)o4)cc2F)c(=O)n3C2CCN(C)CC2)o1 [Compound 124, 3-(4-(5-(difluoromethyl)-1,3,4-oxadiazole-2-yl)-2-fluorobenzyl)-5-(5-methylfuran-2-yl)-1-(1-methylpiperidine-4-yl)-1,3-dihydro-2H-benzo[d]imidazole-2-one]"
< 5.00,6.22,"CN1CCC(n2c(=O)n(Cc3ccc(-c4nnc(C(F)F)o4)cc3F)c3cc(-c4cccnc4)ccc32)CC1 [Compound 125, 3-(4-(5-(difluoromethyl)-1,3,4-oxadiazole-2-yl)-2-fluorobenzyl)-1-(1-methylpiperidine-4-yl)-5-(pyridine-3-yl)-1,3-dihydro-2H-benzo[d]imidazole-2-one]"
< 5.00,6.55,"CN1CCC(n2c(=O)n(Cc3ccc(-c4nnc(C(F)F)o4)cc3)c3cc(-c4cccnc4)ccc32)CC1 [Compound 132, 3-(4-(5-(difluoromethyl)-1,3,4-oxadiazole-2-yl)benzyl)-1-(1-methylpiperidine-4-yl)-5-(pyridine-3-yl)-1,3-dihydro-2H-benzo[d]imidazole-2-one]"
< 5.00,7.70,"CN1CCC(n2c(=O)n(Cc3ccc(-c4nnc(C(F)F)o4)cn3)c3ccc(-c4cccc(F)c4)cc32)CC1 [Compound 133, 1-((5-(5-(difluoromethyl)-1,3,4-oxadiazole-2-yl)pyridine-2-yl)methyl)-5-(3-fluorophenyl)-3-(1-methylpiperidine-4-yl)-1,3-dihydro-2H-benzo[d]imidazole-2-one]"
< 5.00,7.92,"CN1CCC(n2c(=O)n(Cc3ccc(-c4nnc(C(F)F)o4)cn3)c3ccc(-c4cccnc4)cc32)CC1 [Compound 136, 1-((5-(5-(difluoromethyl)-1,3,4-oxadiazole-2-yl)pyridine-2-yl)methyl)-3-(1-methylpiperidine-4-yl)-5-(pyridine-3-yl)-1,3-dihydro-2H-benzo[d]imidazole-2-one]"

# Second part, the compound before the results:
SMILES,pIC50 (HDAC1),pIC50 (HDAC6 human recombinant)
"CN1CCC(n2c(=O)n(Cc3ccc(-c4nnc(C(F)F)o4)cc3F)c3cc(F)c(-c4ccoc4)cc32)CC1 [Compound 115, 1-(4-(5-(difluoromethyl)-1,3,4-oxadiazole-2-yl)-2-fluorobenzyl)-6-fluoro-5-(furan-3-yl)-3-(1-methylpiperidine-4-yl)-1,3-dihydro-2H-benzo[d]imidazole-2-one]",< 5.00,7.11
"CN1CCC(n2c(=O)n(Cc3ccc(-c4nnc(C(F)F)o4)cc3F)c3cc(F)c(-c4ccccc4F)cc32)CC1 [Compound 116, 1-(4-(5-(difluoromethyl)-1,3,4-oxadiazole-2-yl)-2-fluorobenzyl)-6-fluoro-5-(2-fluorophenyl)-3-(1-methylpiperidine-4-yl)-1,3-dihydro-2H-benzo[d]imidazole-2-one]",< 5.00,7.08
"CN1CCC(n2c(=O)n(Cc3ccc(-c4nnc(C(F)F)o4)cc3)c3cc(Br)ccc32)CC1 [Compound 126, 5-bromo-3-(4-(5-(difluoromethyl)-1,3,4-oxadiazole-2-yl)benzyl)-1-(1-methylpiperidine-4-yl)-1,3-dihydro-2H-benzo[d]imidazole-2-one]",< 5.00,7.54
CN1CCC(n2c(=O)n(Cc3ccc(-c4nnc(C(F)F)o4)cc3)c3cc(-c4cc(F)ccc4F)ccc32)CC1 [Compound 128],< 5.00,6.10
CN1CCC(n2c(=O)n(Cc3ccc(-c4nnc(C(F)F)o4)cc3)c3cc(-c4ccc(C(F)(F)F)cc4)ccc32)CC1 [Compound 129],< 5.00,< 5.52
Cc1ccc(-c2ccc3c(c2)n(Cc2ccc(-c4nnc(C(F)F)o4)cc2)c(=O)n3C2CCN(C)CC2)o1 [Compound 130],< 5.00,6.54
"Cc1noc(C)c1-c1ccc2c(c1)n(Cc1ccc(-c3nnc(C(F)F)o3)cc1)c(=O)n2C1CCN(C)CC1 [Compound 131, 3-(4-(5-(difluoromethyl)-1,3,4-oxadiazole-2-yl)benzyl)-5-(3,5-dimethylisooxazole-4-yl)-1-(1-methylpiperidine-4-yl)-1,3-dihydro-2H-benzo[d]imidazole-2-one]",< 5.00,6.22
"CN1CCC(n2c(=O)n(Cc3ccc(-c4nnc(C(F)F)o4)cn3)c3ccc(-c4ccccc4F)cc32)CC1 [Compound 134, 1-((5-(5-(difluoromethyl)-1,3,4-oxadiazole-2-yl)pyridine-2-yl)methyl)-5-(2-fluorophenyl)-3-(1-methylpiperidine-4-yl)-1,3-dihydro-2H-benzo[d]imidazole-2-one]",< 5.00,7.70
"CN1CCC(n2c(=O)n(Cc3ccc(-c4nnc(C(F)F)o4)cn3)c3ccc(-c4ccncc4)cc32)CC1 [Compound 135, 1-((5-(5-(difluoromethyl)-1,3,4-oxadiazole-2-yl)pyridine-2-yl)methyl)-3-(1-methylpiperidine-4-yl)-5-(pyridine-4-yl)-1,3-dihydro-2H-benzo[d]imidazole-2-one]",< 5.00,7.72
